# How the values were obtained:
# [1] = Plasma pharmacokinetics of Compound I and Biapenem alone or in combination after 1.5 hour intravenous infusion in Sprague-Dawley rats (Example 3); type: in vivo; conditions: for Plasma pharmacokinetic parameters, alone versus in combination / AUC / clearance / half-life: Sprague-Dawley rats; for Plasma pharmacokinetic parameters, alone versus in combination: single intravenous infusion; for AUC / clearance / half-life: male, Sprague-Dawley, plasma, iv, 20 mg/kg, 1.5 hour intravenous infusion; for AUC / clearance / half-life / Biapenem Calc. Conc. in plasma: rat; for Biapenem Calc. Conc. in plasma: IV infusion
# Protocol: Example 3 provides a summary of the pharmacokinetic studies of Compound I alone or in combination with Biapenem following a single intravenous infusion dose in Sprague-Dawley rats. The pharmacokinetics of 20 mg/kg of Compound I, 20 mg/kg of Biapenem, and 20 mg/kg of Compound I in combination with 20 mg/kg of Biapenem after a 1.5 hour intravenous infusion were discussed.
# Biapenem power was purchased from Hisun Pharmaceuticals. Compound I was prepared using the method described in the U.S. Publication 2012/0040932 A1. 20 mg of biapenem was dissolved in 0.1 M NaH2PO4 for a basic stock solution. 100 mg of Compound I was dissolved in 30% 1N NaOH to ˜pH 5.0. For animal studies, these stock solutions were further diluted in 0.9% saline to the appropriate concentration.
# The specifications for animals used on this study were as follows: • Species: Rat • Strain: Sprague-Dawley • Gender: Male • Source: Charles River (Hollister, Calif.) • Number of Animals: 3 per study • Body Weight Range: 230-280 g at the start of the study
# After acclimation, rats (n=3) were administered single 20 mg/kg intravenous infusion doses of Compound I or Biapenem alone or in combination. Doses were infused over 1.5 hours via an indwelling femoral vein cannula. Plasma (˜0.3 mL) samples were collected from each rat at designated time points up to 24 hours. The time points are shown in section 2.9. Blood samples were centrifuged within 5 min of collection at 12000 g for 5 min to obtain plasma. The plasma samples were stored on −80° C. until analyzed.
# Compound I standard curves were prepared in rat plasma from 0.1 to 100 μg/mL. 50 μl aliquots of sample were placed in 1.5 mL microcentrifuge tubes. 20 μl of Compound II (10 μg/mL) was added as internal standard to each sample or standard. 20 μl of 30% trichloroacetic acid was then added to each sample or standard. The samples were mixed using a vortex mixer centrifuged for 10 min at 15,000 RPM using a tabletop centrifuge. The supernatant (approx. 120 μl) was removed and added to 100 μl of water in a 96-well plate. The samples were mixed again using a vortex mixer. 10 μl of each sample was injected onto an HPLC-MS for quantification.
# The HPLC-MS conditions for Compound I analysis are as follows: • Column: Phenomenex Fusion-RP or equivalent reversed-phase column, 5 um, 50×2 mm. • Flow rate: 0.6 mL/min. • Mobile phase A: 0.1% formic acid in water. • Mobile phase B: 0.1% formic acid in acetonitrile. • Gradient: 5-60% B in 1.5 min. • Mass spectrometer: Negative ion mode with electrospray ionization. • MS/MS: Compound I-Q1-m/e=296, Q3-m/e=234. • Compound II-Q1-m/e=331, Q3-m/e=201.
# Biapenem standard curves were prepared in 50% plasma-50% 1M MOPS buffer, pH=7.4 from 1 to 250 ug/mL. 20 uL of sample or standard was added into a 96-well deep well plate. Then 500 uL of 10% water-45% methanol-45% acetonitrile containing 2 ug/mL of meropenem was used as an internal standard. The plate was vortexed for 15 min. at 3,000 RPM. 50 uL of supernatant was removed and added 300 uL of water. 10 uL of samples were injected onto an HPLC-MS system for quantification.
# The HPLC-MS conditions for Biaphenem analysis are as follows: • Column: Supelco Discovery HS F5 or equivalent pentafluorophenyl column, 5 um, 50×2.1 mm. • Flow rate: 0.6 mL/min. • Mobile phase A: 0.1% formic acid in water. • Mobile phase B: 0.1% formic acid in acetonitrile. • Gradient: 5-70% B in 1.9 min. • Mass spectrometer: Positive ion mode with electrospray ionization. • MS/MS: Biapenem-Q1-m/e=350.8, Q3-m/e=110.1. • meropenem-Q1-m/e=384.1, Q3-m/e=141.1
# Plasma concentrations were fit using a two compartment IV infusion model (WinNonlinVersion 5.3, Pharsight Corp, Mountain View, Calif.).
# P. aeruginosa = experiment: Potency of Biapenem with or without Compound I against P. aeruginosa (Example 4); type: cell-based
# [2] = Single-dose pharmacokinetics of Compound I, intravenous 30-minute infusion in Beagle dogs (Example 5); type: in vivo; conditions: Dog; for AUC / Cmax / half-life: Beagle, in vivo
# Protocol: Example 5 provides the single-dose pharmacokinetic studies of Compound I inpreclinical species, including intraperitoneal administration to Swiss-Webster mice and intravaneous administration to Sprague-Dawley rats, Beagle dogs, and Cynomologus monkeys.
# Intravaneous doses of Compound I were administered as 30-minute infusions. The pharmacokinetics of Compound I were also studied with coadministration of the carbapenem, Biapenem. Compound I concentrations were determined using an LC-MS detection method.
# [3] = 20 mg/kg Compound I in combination with 20 mg/kg Biapenem
smiles,measurement,setting,value
C[C@@H](O)[C@H]1C(=O)N2C(C(=O)[O-])=C(SC3Cn4cnc[n+]4C3)[C@H](C)[C@H]12 (stereo partly drawn) [Biapenem],"Plasma pharmacokinetic parameters, alone versus in combination",[1],unchanged
same,AUC,[1]; [3],10100 ± 1130 ng·h/mL
same,clearance,[1]; [3],33.8 mL/min/kg
same,half-life,[1]; [3],13.2 ± 0.6 min
same,AUC,[1]; administered alone,8950 ± 890 ng·h/mL
same,clearance,[1]; administered alone,38.2 mL/min/kg
same,half-life,[1]; administered alone,12.6 ± 0.6 min
same,Biapenem Calc. Conc. in plasma,"[1]; sample r.p. # 7.10 (first line), 20 mg/kg Compound I in combination with 20 mg/kg Biapenem",0.100 µg/mL
same,Biapenem Calc. Conc. in plasma,"[1]; sample r.p. # 7.10 (second line), 20 mg/kg Compound I in combination with 20 mg/kg Biapenem",<0 µg/mL
same,Biapenem Calc. Conc. in plasma,"[1]; sample r.p. # 7.1, 20 mg/kg Compound I in combination with 20 mg/kg Biapenem",5.61 µg/mL
same,Biapenem Calc. Conc. in plasma,"[1]; sample r.p. # 7.2, 20 mg/kg Compound I in combination with 20 mg/kg Biapenem",7.98 µg/mL
same,Biapenem Calc. Conc. in plasma,"[1]; sample r.p. # 7.3, 20 mg/kg Compound I in combination with 20 mg/kg Biapenem",5.08 µg/mL
same,Biapenem Calc. Conc. in plasma,"[1]; sample r.p. # 7.4, 20 mg/kg Compound I in combination with 20 mg/kg Biapenem",6.47 µg/mL
same,Biapenem Calc. Conc. in plasma,"[1]; sample r.p. # 7.5, 20 mg/kg Compound I in combination with 20 mg/kg Biapenem",3.03 µg/mL
same,Biapenem Calc. Conc. in plasma,"[1]; sample r.p. # 7.6, 20 mg/kg Compound I in combination with 20 mg/kg Biapenem",1.89 µg/mL
same,Biapenem Calc. Conc. in plasma,"[1]; sample r.p. # 7.7, 20 mg/kg Compound I in combination with 20 mg/kg Biapenem",1.22 µg/mL
same,Biapenem Calc. Conc. in plasma,"[1]; sample r.p. # 7.8, 20 mg/kg Compound I in combination with 20 mg/kg Biapenem",0.103 µg/mL
same,Biapenem Calc. Conc. in plasma,"[1]; sample r.p. # 7.9, 20 mg/kg Compound I in combination with 20 mg/kg Biapenem",0.0321 µg/mL
same,Biapenem Calc. Conc. in plasma,"[1]; sample r.p. # 8.10 (first line), 20 mg/kg Compound I in combination with 20 mg/kg Biapenem",0.0587 µg/mL
same,Biapenem Calc. Conc. in plasma,"[1]; sample r.p. # 8.10 (second line), 20 mg/kg Compound I in combination with 20 mg/kg Biapenem",No Peak
same,Biapenem Calc. Conc. in plasma,"[1]; sample r.p. # 8.1, 20 mg/kg Compound I in combination with 20 mg/kg Biapenem",4.40 µg/mL
same,Biapenem Calc. Conc. in plasma,"[1]; sample r.p. # 8.2, 20 mg/kg Compound I in combination with 20 mg/kg Biapenem",5.21 µg/mL
same,Biapenem Calc. Conc. in plasma,"[1]; sample r.p. # 8.3, 20 mg/kg Compound I in combination with 20 mg/kg Biapenem",7.28 µg/mL
same,Biapenem Calc. Conc. in plasma,"[1]; sample r.p. # 8.4, 20 mg/kg Compound I in combination with 20 mg/kg Biapenem",2.71 µg/mL
same,Biapenem Calc. Conc. in plasma,"[1]; sample r.p. # 8.5, 20 mg/kg Compound I in combination with 20 mg/kg Biapenem",1.87 µg/mL
same,Biapenem Calc. Conc. in plasma,"[1]; sample r.p. # 8.6, 20 mg/kg Compound I in combination with 20 mg/kg Biapenem",1.52 µg/mL
same,Biapenem Calc. Conc. in plasma,"[1]; sample r.p. # 8.7, 20 mg/kg Compound I in combination with 20 mg/kg Biapenem",0.828 µg/mL
same,Biapenem Calc. Conc. in plasma,"[1]; sample r.p. # 8.8, 20 mg/kg Compound I in combination with 20 mg/kg Biapenem",0.0353 µg/mL
same,Biapenem Calc. Conc. in plasma,"[1]; sample r.p. # 8.9, 20 mg/kg Compound I in combination with 20 mg/kg Biapenem",0.0393 µg/mL
same,Biapenem Calc. Conc. in plasma,"[1]; sample r.p. # 9.10 (first line), 20 mg/kg Compound I in combination with 20 mg/kg Biapenem",0.196 µg/mL
same,Biapenem Calc. Conc. in plasma,"[1]; sample r.p. # 9.10 (second line), 20 mg/kg Compound I in combination with 20 mg/kg Biapenem",<0 µg/mL
same,Biapenem Calc. Conc. in plasma,"[1]; sample r.p. # 9.1, 20 mg/kg Compound I in combination with 20 mg/kg Biapenem",3.86 µg/mL
same,Biapenem Calc. Conc. in plasma,"[1]; sample r.p. # 9.2, 20 mg/kg Compound I in combination with 20 mg/kg Biapenem",7.34 µg/mL
same,Biapenem Calc. Conc. in plasma,"[1]; sample r.p. # 9.3, 20 mg/kg Compound I in combination with 20 mg/kg Biapenem",9.20 µg/mL
same,Biapenem Calc. Conc. in plasma,"[1]; sample r.p. # 9.5, 20 mg/kg Compound I in combination with 20 mg/kg Biapenem",4.90 µg/mL
same,Biapenem Calc. Conc. in plasma,"[1]; sample r.p. # 9.6, 20 mg/kg Compound I in combination with 20 mg/kg Biapenem",2.16 µg/mL
same,Biapenem Calc. Conc. in plasma,"[1]; sample r.p. # 9.7, 20 mg/kg Compound I in combination with 20 mg/kg Biapenem",1.69 µg/mL
same,Biapenem Calc. Conc. in plasma,"[1]; sample r.p. # 9.8, 20 mg/kg Compound I in combination with 20 mg/kg Biapenem",0.0705 µg/mL
same,Biapenem Calc. Conc. in plasma,"[1]; sample r.p. # 9.9, 20 mg/kg Compound I in combination with 20 mg/kg Biapenem",0.00349 µg/mL
same,Potency against P. aeruginosa,P. aeruginosa; Biapenem compared with meropenem,potency similar to meropenem
O=C(O)C[C@@H]1CC[C@H](NC(=O)Cc2cccs2)B(O)O1 [Compound I],"Plasma pharmacokinetic parameters, alone versus in combination",[1],unchanged
same,AUC,[1]; [3],10400 ± 1150 ng·h/mL
same,clearance,[1]; [3],32.5 mL/min/kg
same,half-life,[1]; [3],23.4 ± 6.6 min
same,AUC,[1]; administered alone,11000 ± 860 ng·h/mL
same,clearance,[1]; administered alone,33 mL/min/kg
same,half-life,[1]; administered alone,43.2 ± 9 min
same,AUC,[2]; 2 mg/kg IV,6130 ± 650 ng·h/mL
same,Cmax,[2]; 2 mg/kg IV,6490 ± 310 ng/mL
same,half-life,[2]; 2 mg/kg IV,39.6 ± 3.6 min
same,AUC,[2]; 6 mg/kg IV,18400 ± 2360 ng·h/mL
same,Cmax,[2]; 6 mg/kg IV,19600 ± 1420 ng/mL
same,half-life,[2]; 6 mg/kg IV,42.6 ± 5.4 min
same,AUC,[2]; 20 mg/kg IV,73600 ± 5380 ng·h/mL
same,Cmax,[2]; 20 mg/kg IV,66800 ± 6160 ng/mL
same,half-life,[2]; 20 mg/kg IV,91.8 ± 43.8 min
same,CL or CL/F,[2]; 2 mg/kg IV,0.33 ± 0.03 L/kg/h
same,CL or CL/F,[2]; 6 mg/kg IV,0.33 ± 0.04 L/kg/h
same,CL or CL/F,[2]; 20 mg/kg IV,0.27 ± 0.02 L/kg/h
same,Enhancement of Biapenem potency by the addition of Compound I,P. aeruginosa; P. aeruginosa,no enhancement
